How the values were obtained:
[1] = target: T1, Aβ1-42 oligomers (Homo sapiens, UniProt P05067); assay: Selectivity for Aβ1-42 over tau domain (fluorescence); format: binding; details: tau repeat domain 3 aggregates
T1 construct: Aβ1-42 peptide was aggregated at 37 °C for 8 hours
Protocol: Considering that tau protein aggregation is also a major pathological feature of AD, the selectivity of IK15j for Aβ1-42 over tau domains was further evaluated. […] Since repeat domain 3 is a core region of tau aggregates, IK15j was incubated with the tau domain or with Aβ1-42, and the resulting changes in fluorescence intensity were compared. Briefly, Aβ1-42 and tau aggregate samples were each treated with IK15j, and the fluorescence intensity was measured. As a result, the signal of IK15j increased in the presence of Aβ1-42 oligomers compared to that of the tau domain (FIG. 3E).

[2] = system: Aβn-(n+5) (n = 1 to 37); assay: Mapping Amyloid Plate (MAP): binding to immobilized Aβ1-42 hexamer fragments; details: MAP treated with IK15j for 24 hours
Protocol: A Mapping Amyloid Plate (MAP) for investigating the target site of the compound of the present disclosure on Aβ1-42 fragments or Aβ1-42 oligomers was prepared with reference to Korean Patent Application No. 10-2023-0133625, which is incorporated herein by reference in its entirety.
Briefly, to remove the bovine serum albumin coating from the plate, each well of the plate was washed three times with 200 µL of wash buffer (0.1 M sodium phosphate, 0.15 M sodium chloride, 0.05 % Tween-20, pH 7.2). Full-length and fragmented peptides of Aβ1-42 were individually dissolved in DMSO to prepare […] stock solutions, which were then diluted with binding buffer (0.1 M sodium phosphate, 0.15 M sodium chloride, 10 mM EDTA, pH 7.2) to prepare 50 µg/mL peptide solutions (5 % DMSO). 100 µL of the peptide solution was added to each well and allowed to react with the maleimide at room temperature overnight. After peptide immobilization, unbound peptides were removed by washing three times with 200 µL of wash buffer. […]
Two conditions were prepared to confirm whether the compound of the present disclosure targets the structure or the sequence of Aβ oligomers. […] The fluorescence intensity of both plates was measured using a microplate reader (λex = 285 nm/λem = 475 nm). […]

[3] = target: T2, albumin (Homo sapiens, UniProt P02768); assay: Selectivity for blood proteins: albumin; format: binding; details: IK15j (25 µM)
T2 construct: purchased Sigma-Aldrich
Protocol: Aβ1-42 peptide was aggregated at 37 °C for 8 hours, and 25 µM of Aβ1-42 oligomers, albumin (Sigma-Aldrich, USA), and fibrinogen (Sigma-Aldrich, USA) were seeded into a black microplate. Each sample was treated with IK15j (100 µM) for 8 hours at room temperature. The signal of each sample was detected using a microplate reader (λex = 285 nm / λem = 475 nm).
Excluding water, the solid components of plasma consist of coagulation factors and plasma proteins. Albumin is the most abundant protein in plasma, and fibrinogen is a major coagulation factor in plasma. Considering the possibility that fibrinogen or albumin might interact with AD diagnostic tools and interfere with compound selectivity, IK15j (25 µM) was incubated with Aβ1-42, albumin, or fibrinogen as described in Reference Example 10, and the fluorescence signal of each sample was measured to evaluate the selectivity of the compound of the present disclosure against these proteins.

[4] = target: T1, Aβ1-42 oligomers; assay: Co-incubation with Aβ1-42 oligomers and albumin; format: binding; details: co-incubated with Aβ1-42 oligomers and albumin
Protocol: Full-length Aβ1-42 peptide was immobilized on a maleimide-activated microplate. Then, the plate was treated with additional Aβ1-42 peptide (10 µM) at 37°C for 8 hours. After peptide immobilization, unbound peptides were removed by washing three times with 200 µL of wash buffer. To form albumin-Aβ oligomer complexes, the plate was treated with albumin (10 µM, Sigma-Aldrich, USA) at room temperature for 24 hours, and unbound residues were removed by washing three times with 200 µL of wash buffer. The control Aβ oligomer wells were not treated with albumin. Each well was treated with the compound of the present disclosure (100 µM), and the signal of each sample was detected using a microplate reader (λex = 285 nm / λem = 475 nm).
In addition, to investigate whether albumin interferes with the binding between IK15j and Aβ1-42 oligomers, IK15j was co-incubated with Aβ1-42 oligomers and albumin as described in Reference Example 11, and the fluorescence signal of each sample was analyzed.

T1 sequence (P05067 672-713): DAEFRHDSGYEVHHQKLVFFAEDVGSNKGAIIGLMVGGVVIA
T2 sequence (P02768 25-609, species assumed): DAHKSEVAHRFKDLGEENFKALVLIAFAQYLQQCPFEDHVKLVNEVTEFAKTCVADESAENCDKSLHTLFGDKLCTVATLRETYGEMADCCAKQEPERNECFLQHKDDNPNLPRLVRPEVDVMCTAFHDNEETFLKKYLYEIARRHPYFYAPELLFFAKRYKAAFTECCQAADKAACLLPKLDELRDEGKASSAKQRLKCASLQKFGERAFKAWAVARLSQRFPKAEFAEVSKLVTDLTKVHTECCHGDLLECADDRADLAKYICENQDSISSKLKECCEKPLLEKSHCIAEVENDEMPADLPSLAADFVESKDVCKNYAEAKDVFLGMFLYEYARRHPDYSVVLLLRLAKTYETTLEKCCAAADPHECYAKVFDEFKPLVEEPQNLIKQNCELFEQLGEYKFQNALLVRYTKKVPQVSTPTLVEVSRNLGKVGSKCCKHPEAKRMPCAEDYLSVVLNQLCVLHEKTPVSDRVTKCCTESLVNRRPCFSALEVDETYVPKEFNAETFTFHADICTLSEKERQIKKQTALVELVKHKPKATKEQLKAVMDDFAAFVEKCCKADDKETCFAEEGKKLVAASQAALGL

Which “signal in the presence of Aβ1-42 oligomers compared to the tau domain” value [1] does the source give for `Cc1ccc2c(c1)c(-c1ccccc1)cn1c(C)cc(C#N)c21` [IK15j, 3,8-dimethyl-6-phenylpyrrolo[2,1-a]isoquinoline-1-carbonitrile] here?
The value was “increased”.

What about the “signal in Aβ fragments compared to Aβ1-42” value [2] of the same molecule?
The value was “increase in IK15j signal was observed in 10 Aβ fragments (Aβ14-19 to Aβ23-28)”.

And the “signal across all Aβ fragments” value ([2]; heatmap)?
Its value is “relatively low across all fragments”.

What about the interaction with albumin [3] of the same molecule?
Its interaction with albumin is “did not interact”.

And the “signal of Aβ1-42 oligomer and albumin sample compared to Aβ1-42 oligomer-only sample” value [4]?
The value was “decreased compared to the Aβ1-42 oligomer-only sample, the difference was not significant”.
